Assay results: ChEMBL document CHEMBL1201862, “PubChem BioAssay data set” (2004)
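Method: 48-hour compound exposure of cells in 96-well plates, five concentrations, linear interpolation of endpoints. GI50 is the concentration that inhibits growth by half.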 The source made the active and inactive calls. Cut-off read from the data, not from the text of the source: active = GI50 up to about 1.1 µM and inactive = higher. Where a SMILES comes first, the peptide text is derived from it. [ ]: non-standard residue; d: D form. The star is where a group is joined. Octanoyl = CCCCCCCC(=O)*; Aib = CC(C)(N)C(=O)O; tBu = CC(C)(C)*

Legend:
Test in all cases: inhibition of tumour cell growth, NCI panel, 48 h
BT-549 = tested on: BT-549
COLO 205 = tested on: COLO 205
HCT-116 = tested on: HCT-116
Hs-578T = tested on: Hs-578T
KM12 = tested on: KM12
MCF7 = tested on: MCF7
MDA-N = tested on: MDA-N
MOLT-4 = tested on: MOLT-4
Malme-3M = tested on: Malme-3M
NCI-H460 = tested on: NCI-H460
NCI/ADR-RES = tested on: NCI/ADR-RES
OVCAR-3 = tested on: OVCAR-3
RXF 393 = tested on: RXF 393
SF-539 = tested on: SF-539
SK-MEL-28 = tested on: SK-MEL-28
SK-MEL-5 = tested on: SK-MEL-5
TK-10 = tested on: TK-10
HCC 2998 = tested on: HCC 2998
SF-295 = tested on: SF-295
UACC-257 = tested on: UACC-257

SMILES	GI50 (BT-549)	GI50 (COLO 205)	GI50 (HCT-116)	GI50 (Hs-578T)	GI50 (KM12)	GI50 (MCF7)	GI50 (MDA-N)	GI50 (MOLT-4)	GI50 (Malme-3M)	GI50 (NCI-H460)	GI50 (NCI/ADR-RES)	GI50 (OVCAR-3)	GI50 (RXF 393)	GI50 (SF-539)	GI50 (SK-MEL-28)	GI50 (SK-MEL-5)	GI50 (TK-10)	GI50 (HCC 2998)	GI50 (SF-295)	GI50 (UACC-257)
OCc1cn(Cc2ccccc2)c2ccccc12	6.59 µM (inactive)	0.444 µM (active)	0.555 µM (active)	12.9 µM (inactive)	> 48 µM (inactive)	0.612 µM (active)	35.6 µM (inactive)	> 47.3 µM (inactive)	5.46 µM (inactive)	0.135 µM (active)	15.2 µM (inactive)	0.232 µM (active)	< 0.0316 µM (active)	> 34.5 µM (inactive)	> 59.3 µM (inactive)	25.7 µM (inactive)	< 0.0359 µM (active)			
Cn1nc(/C=C\C(=O)N2CC(CCl)c3c2cc(N)c2ccccc32)cc1/C=C/C(=O)N1CC(CCl)c2c1cc(N)c1ccccc21 (stereo unspecified)	< 0.01 µM (active)	< 0.01 µM (active)	< 0.01 µM (active)		< 0.01 µM (active)	< 0.01 µM (active)	< 0.01 µM (active)	< 0.01 µM (active)	< 0.01 µM (active)	< 0.01 µM (active)	0.0124 µM (active)	< 0.01 µM (active)	< 0.01 µM (active)	< 0.01 µM (active)	< 0.01 µM (active)	< 0.01 µM (active)	< 0.01 µM (active)	< 0.01 µM (active)	< 0.01 µM (active)	0.0225 µM (active)
O=C1C(/C=C/c2ccc(Cl)cc2)=NNC2N1N=C1NC(=O)C3(NN12)c1ccccc1-c1ccccc13 (stereo unspecified)	> 100 µM (inactive)	> 100 µM (inactive)	> 100 µM (inactive)	65.6 µM (inactive)		26.5 µM (inactive)			> 100 µM (inactive)	> 100 µM (inactive)	> 100 µM (inactive)	> 100 µM (inactive)	> 100 µM (inactive)	> 100 µM (inactive)	> 100 µM (inactive)	> 100 µM (inactive)	> 100 µM (inactive)	> 100 µM (inactive)	> 100 µM (inactive)	> 100 µM (inactive)
C=CCOC(=O)CC[C@H](NC(=O)[C@@H](CCC(F)(F)F)Cc1ccc(O)cc1)C(=O)OCC=C	> 100 µM (inactive)	21.3 µM (inactive)	> 100 µM (inactive)	36.7 µM (inactive)	> 100 µM (inactive)	20.7 µM (inactive)	32.7 µM (inactive)	27.7 µM (inactive)	20.2 µM (inactive)		> 100 µM (inactive)		> 100 µM (inactive)	90.2 µM (inactive)	23.7 µM (inactive)	18.5 µM (inactive)			> 100 µM (inactive)	
C=C(Br)C/N=C/N(C)C	> 100 µM (inactive)	> 100 µM (inactive)	> 100 µM (inactive)	> 100 µM (inactive)		> 100 µM (inactive)	> 100 µM (inactive)	> 100 µM (inactive)	> 100 µM (inactive)		> 100 µM (inactive)	> 100 µM (inactive)	> 100 µM (inactive)	> 100 µM (inactive)	> 100 µM (inactive)	> 100 µM (inactive)	> 100 µM (inactive)		> 100 µM (inactive)	> 100 µM (inactive)
CC(C)CC(NC=O)C(=O)NC(Cc1ccccc1)NC(=O)CNC(=O)C(C)NC(=O)OC(C)(C)C (stereo unspecified)	> 100 µM (inactive)	> 100 µM (inactive)	> 100 µM (inactive)	> 100 µM (inactive)	> 100 µM (inactive)	> 100 µM (inactive)	> 100 µM (inactive)	> 100 µM (inactive)	> 100 µM (inactive)	> 100 µM (inactive)	> 100 µM (inactive)	> 100 µM (inactive)	> 100 µM (inactive)	> 100 µM (inactive)	> 100 µM (inactive)	> 100 µM (inactive)	> 100 µM (inactive)		> 100 µM (inactive)	
CCOC(=O)Nc1nn(C)/c(=N/Cc2ccccc2)s1	85.1 µM (inactive)	> 100 µM (inactive)	> 100 µM (inactive)	> 100 µM (inactive)	> 100 µM (inactive)	> 100 µM (inactive)	> 100 µM (inactive)	> 100 µM (inactive)		> 100 µM (inactive)		> 100 µM (inactive)	> 100 µM (inactive)	> 100 µM (inactive)	> 100 µM (inactive)	> 100 µM (inactive)	> 100 µM (inactive)		> 100 µM (inactive)	> 100 µM (inactive)
CC1COC(c2cn[nH]c2C(N)=O)C1O (stereo unspecified)	> 100 µM (inactive)	> 100 µM (inactive)	> 100 µM (inactive)	> 100 µM (inactive)	> 100 µM (inactive)	> 100 µM (inactive)	> 100 µM (inactive)	> 100 µM (inactive)		> 100 µM (inactive)	> 100 µM (inactive)	> 100 µM (inactive)		> 100 µM (inactive)	> 100 µM (inactive)	> 100 µM (inactive)	> 100 µM (inactive)		> 100 µM (inactive)	> 100 µM (inactive)
COc1ccc(-c2nc3ncccn3c2-c2ccc(SC)cc2)cc1	1.45 µM (inactive)	1.33 µM (inactive)	1.1 µM (active)	1.74 µM (inactive)	0.453 µM (active)		0.237 µM (active)	3.7 µM (inactive)		2.18 µM (inactive)	1.46 µM (inactive)	0.44 µM (active)		1.83 µM (inactive)	16.9 µM (inactive)	0.953 µM (active)			0.989 µM (active)	> 100 µM (inactive)
CC[C@@]1(O)C(=O)OCc2c1cc1n(c2=O)Cc2c-1nc1ccccc1c2/C=N\NC(=O)C(N)Cc1ccc(O)cc1 (stereo partly specified)	1.9 µM (inactive)	12.6 µM (inactive)	0.804 µM (active)	7.43 µM (inactive)	3.37 µM (inactive)	0.367 µM (active)	3.35 µM (inactive)	0.0658 µM (active)	1.35 µM (inactive)	0.187 µM (active)	1.33 µM (inactive)			0.0731 µM (active)	6.24 µM (inactive)	0.638 µM (active)	> 31.6 µM (inactive)	4.03 µM (inactive)	0.46 µM (active)	2.45 µM (inactive)
CC(C)C1OC(=O)/C=C/C=C/C=C/C=C/C=C/CC(O)CC(O)CC(O)CC(O)CC(O)CC(O)CC(O)CC(O)/C=C/C1C (stereo unspecified)	> 100 µM (inactive)	> 100 µM (inactive)	> 100 µM (inactive)		> 100 µM (inactive)	> 100 µM (inactive)	> 100 µM (inactive)	> 100 µM (inactive)	> 100 µM (inactive)	> 100 µM (inactive)	> 100 µM (inactive)	> 100 µM (inactive)	73.8 µM (inactive)	> 100 µM (inactive)	> 100 µM (inactive)	> 100 µM (inactive)	> 100 µM (inactive)	> 100 µM (inactive)	> 100 µM (inactive)	> 100 µM (inactive)
NNC(=O)c1c(-c2cccnc2)cnc2ccccc12	> 100 µM (inactive)	> 100 µM (inactive)	> 100 µM (inactive)		> 100 µM (inactive)	> 100 µM (inactive)	> 100 µM (inactive)	> 100 µM (inactive)	> 100 µM (inactive)	> 100 µM (inactive)	> 100 µM (inactive)	> 100 µM (inactive)	> 100 µM (inactive)	> 100 µM (inactive)	> 100 µM (inactive)	> 100 µM (inactive)	> 100 µM (inactive)	> 100 µM (inactive)	> 100 µM (inactive)	> 100 µM (inactive)
O=C1C=C2CC[C@H]3[C@@H]4CC[C@H](Oc5c6ccccc6nc6ccccc56)[C@H]4CC[C@@H]3[C@H]2CC1	20.3 µM (inactive)	42.5 µM (inactive)	37.1 µM (inactive)	26.8 µM (inactive)	39.6 µM (inactive)		21.4 µM (inactive)			35.6 µM (inactive)	20.4 µM (inactive)	42.6 µM (inactive)	26.2 µM (inactive)	52.2 µM (inactive)	48.9 µM (inactive)	22.5 µM (inactive)	47.8 µM (inactive)		52.4 µM (inactive)	35.6 µM (inactive)
O=C1Nc2ccc(S(=O)(=O)O)cc2/C1=N/Nc1ccccc1[N+](=O)[O-]	> 100 µM (inactive)	> 100 µM (inactive)	> 100 µM (inactive)	> 100 µM (inactive)	> 100 µM (inactive)	> 100 µM (inactive)	> 100 µM (inactive)	> 100 µM (inactive)	> 100 µM (inactive)	> 100 µM (inactive)	> 100 µM (inactive)	> 100 µM (inactive)	> 100 µM (inactive)	> 100 µM (inactive)	> 100 µM (inactive)	> 100 µM (inactive)	> 100 µM (inactive)		> 100 µM (inactive)	> 100 µM (inactive)
CCCCCCCC(=O)NC(C)(C)C(=O)NC(COC(C)(C)C)C(=O)NC(CC(C)C)C(=O)NC(C)(C)C(=O)NC(COC(C)(C)C)C(=O)NC(COC(C)(C)C)C(=O)NC(CC(C)C)C(=O)NC(C)(C)C(=O)NC(COC(C)(C)C)C(=O)NC(C(=O)NC(CC(C)C)C(=O)OC)C(C)CC (stereo unspecified) (Octanoyl-[Aib]S(tBu)L[Aib]S(tBu)S(tBu)L[Aib]S(tBu)IL-OMe; configuration not given here)	5.38 µM (inactive)	6.55 µM (inactive)	7.18 µM (inactive)	8.85 µM (inactive)	6.67 µM (inactive)	5.98 µM (inactive)	8.65 µM (inactive)	5.52 µM (inactive)		5.64 µM (inactive)	> 25 µM (inactive)	4.85 µM (inactive)	3.57 µM (inactive)	8.49 µM (inactive)	14.4 µM (inactive)	6.22 µM (inactive)	7.14 µM (inactive)		6.4 µM (inactive)	8.81 µM (inactive)
